From patent publication US20080234262A1 (Wyeth, priority 2007, published 2008)

Target: PI3K (Homo sapiens, UniProt P42336)
Test: Fluorescence polarization assay for PI3K;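 note: PI3K kinase reaction on PIP2 with ATP, 30-60 min, product sensed by GST-GRP with red probe in fluorescence polarization (mP), controls without enzyme and at zero time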
Type: biochemical
Details: PI3Kα; read-out: PI3Kα IC50

PI3K, sequence (P42336 whole entry): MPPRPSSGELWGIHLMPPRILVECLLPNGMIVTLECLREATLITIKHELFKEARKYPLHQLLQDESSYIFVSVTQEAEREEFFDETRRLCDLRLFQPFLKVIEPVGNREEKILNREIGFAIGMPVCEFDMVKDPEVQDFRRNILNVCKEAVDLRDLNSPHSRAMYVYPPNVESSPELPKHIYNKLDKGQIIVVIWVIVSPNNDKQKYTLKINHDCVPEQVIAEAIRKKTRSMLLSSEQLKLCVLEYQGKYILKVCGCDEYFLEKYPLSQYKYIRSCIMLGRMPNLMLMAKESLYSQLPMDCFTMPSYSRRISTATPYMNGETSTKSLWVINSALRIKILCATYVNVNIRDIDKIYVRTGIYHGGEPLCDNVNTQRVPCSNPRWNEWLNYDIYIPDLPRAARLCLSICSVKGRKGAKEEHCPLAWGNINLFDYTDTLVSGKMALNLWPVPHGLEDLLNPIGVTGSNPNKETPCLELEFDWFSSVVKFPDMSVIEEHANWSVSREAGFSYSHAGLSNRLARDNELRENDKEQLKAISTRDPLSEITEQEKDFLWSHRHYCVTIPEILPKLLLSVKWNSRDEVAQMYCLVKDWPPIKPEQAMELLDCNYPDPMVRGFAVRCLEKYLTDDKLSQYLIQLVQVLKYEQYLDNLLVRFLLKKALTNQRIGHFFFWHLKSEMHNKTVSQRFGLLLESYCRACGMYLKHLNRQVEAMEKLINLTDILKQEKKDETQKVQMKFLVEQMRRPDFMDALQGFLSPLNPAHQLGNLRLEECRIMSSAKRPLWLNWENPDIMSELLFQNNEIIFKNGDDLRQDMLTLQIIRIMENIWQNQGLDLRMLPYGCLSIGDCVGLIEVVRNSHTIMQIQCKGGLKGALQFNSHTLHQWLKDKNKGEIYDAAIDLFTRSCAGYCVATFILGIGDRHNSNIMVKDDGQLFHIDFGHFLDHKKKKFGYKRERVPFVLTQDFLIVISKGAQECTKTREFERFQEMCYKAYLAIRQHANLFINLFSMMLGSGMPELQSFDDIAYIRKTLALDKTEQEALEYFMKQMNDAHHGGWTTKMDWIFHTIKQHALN
PI3K, sequence (P27986 whole entry partner): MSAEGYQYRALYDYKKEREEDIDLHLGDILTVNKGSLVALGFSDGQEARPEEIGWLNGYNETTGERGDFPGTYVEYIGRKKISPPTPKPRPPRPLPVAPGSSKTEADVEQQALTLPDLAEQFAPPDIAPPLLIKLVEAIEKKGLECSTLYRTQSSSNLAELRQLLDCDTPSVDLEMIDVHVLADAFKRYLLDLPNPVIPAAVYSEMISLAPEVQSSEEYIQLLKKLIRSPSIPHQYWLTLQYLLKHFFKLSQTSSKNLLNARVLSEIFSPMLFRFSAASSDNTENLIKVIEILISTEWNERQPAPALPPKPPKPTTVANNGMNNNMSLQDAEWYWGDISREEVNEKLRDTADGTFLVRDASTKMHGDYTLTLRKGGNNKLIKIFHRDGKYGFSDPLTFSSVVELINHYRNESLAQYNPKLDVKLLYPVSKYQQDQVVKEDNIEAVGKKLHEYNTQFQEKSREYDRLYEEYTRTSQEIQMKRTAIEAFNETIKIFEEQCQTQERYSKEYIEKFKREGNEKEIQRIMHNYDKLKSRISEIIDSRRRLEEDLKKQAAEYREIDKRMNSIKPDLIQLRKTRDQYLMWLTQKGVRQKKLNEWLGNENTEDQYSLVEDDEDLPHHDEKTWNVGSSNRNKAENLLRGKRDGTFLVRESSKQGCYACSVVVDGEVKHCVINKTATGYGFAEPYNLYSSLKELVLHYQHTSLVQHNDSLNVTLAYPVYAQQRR

Work on COC(=O)Nc1ccc(-c2nc(N3CCOCC3)c3cnn(C4CCN(C(=O)c5ccc(F)cc5F)CC4)c3n2)cc1 [Compound 693, methyl (4-{1-[1-(2,4-difluorobenzoyl)piperidin-4-yl]-4-morpholin-4-yl-1H-pyrazolo[3,4-d]pyrimidin-6-yl}phenyl)carbamate] yielded an IC50 of 0.8 µM.
COC(=O)Nc1ccc(-c2nc(N3CCOCC3)c3cnn(C4CCN(Cc5cccnc5OC)CC4)c3n2)cc1 [Compound 696, methyl [4-(1-{1-[(2-methoxypyridin-3-yl)methyl]piperidin-4-yl}-4-morpholin-4-yl-1H-pyrazolo[3,4-d]pyrimidin-6-yl)phenyl]carbamate] showed an IC50 of 1.83 µM.
COC(=O)Nc1ccc(-c2nc(N3CCOCC3)c3cnn(C4CCN(Cc5ccc(Cl)nc5)CC4)c3n2)cc1 [Compound 698, methyl [4-(1-{1-[(6-chloropyridin-3-yl)methyl]piperidin-4-yl}-4-morpholin-4-yl-1H-pyrazolo[3,4-d]pyrimidin-6-yl)phenyl]carbamate] gave an IC50 of 0.619 µM.
Work on COC(=O)Nc1ccc(-c2nc(N3CCOCC3)c3cnn(C4CCN(Cc5ccccc5Cl)CC4)c3n2)cc1 [Compound 699, methyl (4-{1-[1-(2-chlorobenzyl)piperidin-4-yl]-4-morpholin-4-yl-1H-pyrazolo[3,4-d]pyrimidin-6-yl}phenyl)carbamate] yielded an IC50 of 0.786 µM.
Molecule COC(=O)Nc1ccc(-c2nc(N3CCOCC3)c3cnn(C4CCN(CC(N)=O)CC4)c3n2)cc1 [Compound 700, methyl (4-{1-[1-(2-amino-2-oxoethyl)piperidin-4-yl]-4-morpholin-4-yl-1H-pyrazolo[3,4-d]pyrimidin-6-yl}phenyl)carbamate] has an IC50 of 1.43 µM.
Molecule COC(=O)Nc1ccc(-c2nc(N3CCOCC3)c3cnn(C4CCN(CC(=O)c5ccccc5)CC4)c3n2)cc1 [Compound 701, methyl (4-{4-morpholin-4-yl-1-[1-(2-oxo-2-phenylethyl)piperidin-4-yl]-1H-pyrazolo[3,4-d]pyrimidin-6-yl}phenyl)carbamate] has an IC50 of 0.585 µM.
C=CC(=O)N1CCC(n2ncc3c(N4CCOCC4)nc(-c4ccc(NC(=O)OC)cc4)nc32)CC1 [Compound 702, methyl {4-[1-(1-acryloylpiperidin-4-yl)-4-morpholin-4-yl-1H-pyrazolo[3,4-d]pyrimidin-6-yl]phenyl}carbamate] was tested, and the IC50 was 1.98 µM.
COC(=O)Nc1ccc(-c2nc(N3CCOCC3)c3cnn(C4CCNCC4)c3n2)cc1 [Compound 703, methyl [4-(4-morpholin-4-yl-1-piperidin-4-yl-1H-pyrazolo[3,4-d]pyrimidin-6-yl)phenyl]carbamate] was tested, and the IC50 was 1.07 µM.
Nc1ccc(-c2nc(N3CCOCC3)c3cnn(C4CCN(C(=O)c5cccnc5)CC4)c3n2)c(F)c1 [Compound 704, 3-fluoro-4-{4-morpholin-4-yl-1-[1-(pyridin-3-ylcarbonyl)piperidin-4-yl]-1H-pyrazolo[3,4-d]pyrimidin-6-yl}aniline] was tested, and the IC50 was 4.03 µM.
Work on CCNC(=O)Nc1ccc(-c2nc(N3CCOCC3)c3cnn(C4CCN(C(=O)c5cccnc5)CC4)c3n2)c(F)c1 [Compound 706, 1-ethyl-3-(3-fluoro-4-{4-morpholin-4-yl-1-[1-(pyridin-3-ylcarbonyl)piperidin-4-yl]-1H-pyrazolo[3,4-d]pyrimidin-6-yl}phenyl)urea] yielded an IC50 of 1.61 µM.
O=C(NCCF)Nc1ccc(-c2nc(N3CCOCC3)c3cnn(C4CCN(C(=O)c5cccnc5)CC4)c3n2)c(F)c1 [Compound 707, 1-(2-fluoroethyl)-3-(3-fluoro-4-{4-morpholin-4-yl-1-[1-(pyridin-3-ylcarbonyl)piperidin-4-yl]-1H-pyrazolo[3,4-d]pyrimidin-6-yl}phenyl)urea] showed an IC50 of 1.73 µM.
CCNC(=O)Nc1cc(F)c(-c2nc(N3CCOCC3)c3cnn(C4CCN(C(=O)c5cccnc5)CC4)c3n2)cc1F [Compound 710, 1-(2,5-difluoro-4-{4-morpholin-4-yl-1-[1-(pyridin-3-ylcarbonyl)piperidin-4-yl]-1H-pyrazolo[3,4-d]pyrimidin-6-yl}phenyl)-3-ethylurea] was tested, and the IC50 was 3.11 µM.
